Reference: US7166622B2, “Substituted phenylsulfonamide inhibitors of beta amyloid production” (Wyeth, priority 2002, dated 2007)
Like-named read-outs stand apart in the source and are kept apart here.

What was measured:
[1] = test system: CHO-K1 cells; experiment: Toxicity in RRA (loss of luciferase signal); settings: toxicity = loss of signal (<0.75 fold increase)
Method: The beta amyloid inhibitory activity of the compounds of the present invention was determined using the Repressor Release Assay (RRA).
“Fold Increase” refers to the amount of luciferase activity (measured in relative light units) over diluent control. “SEM” refers to the standard error of the mean for fold increase.

[2] = test system: beta amyloid production; experiment: Repressor Release Assay (RRA); type: cell-based; settings: for fold induction at 20 µg/mL / fold induction at 10 µg/mL: read-out: APPI Fold Increase; for APPI % of Example #98: relative to Example 98
Summary of the method: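 Read-out is luciferase luminescence (RLU) after 36-48 h duplicate compound exposure of transfected CHO-K1 cells. These cells carry transiently introduced APP-lacI and pRSVO-luc DNA. Diluent control was 25 mM Hepes/1% DMSO; toxicity recorded as binary score (1 non-toxic, 0 toxic).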

[3] = Conc 20 μg/ml, luciferase activity over diluent control
[4] = Conc 10 μg/ml, luciferase activity over diluent control
[5] = Conc 20 μg/ml, 1=non-toxic, 0=toxic
[6] = Conc 20 μg/ml, luciferase activity (RLU) over diluent control

Compound | (%)APPI Toxicity ([1]; Conc 20 μg/ml) | fold induction at 20 µg/mL [2, 3] | (%)APPI Toxicity ([1]; Conc 10 μg/ml) | fold induction at 10 µg/mL [2, 4] | also measured
CC(c1ccccc1)C(CO)NS(=O)(=O)c1ccc(Br)cc1 (stereo not drawn) [Example 35, 4-bromo-N-[-1-(hydroxymethyl)-2-phenylpropyl]benzenesulfonamide] | 1 (1=non-toxic) | 2.4 |  |  | 
CC[C@H](C)[C@H](NS(=O)(=O)c1cccc(Cl)c1)C(O)c1ccc(OC)cc1 (stereo partly drawn) [Example 198, 3-chloro-N-{(1S,2S)-1-[hydroxy(4-methoxyphenyl)methyl]-2-methylbutyl}benzenesulfonamide] |  |  | 1 (1=non-toxic) | 1.54 | 
CC[C@@H](C)[C@H](CO)NS(=O)(=O)c1ccc(Br)cc1 [Example 33, 4-Bromo-N-[(1R,2R)-1-(hydroxymethyl)-2-methylbutyl]benzenesulfonamide] | 1 (1=non-toxic) | 3.9 |  |  | 
C[C@H](c1ccccc1)[C@@H](CO)NS(=O)(=O)c1ccc(Cl)cc1 [Example 51, 4-chloro-N-[(1S,2R)-1-(hydroxymethyl)-2-phenylpropyl]benzenesulfonamide] |  |  |  |  | (%)APPI Toxicity [1, 5]: 1 (1=non-toxic); fold induction at 20 µg/mL [2, 6]: 1.6
CC[C@H](C)[C@H](NS(=O)(=O)c1ccc(Br)cc1)C(O)c1ccc(F)cc1 (stereo partly drawn) [Example 154, 4-bromo-N-{(1S,2S)-1-[(4-fluorophenyl) (hydroxy)methyl]-2-methylbutyl}benzenesulfonamide] |  |  | 1 (1=non-toxic) | 1.68 | 
CCC(O)[C@@H](NS(=O)(=O)c1ccc(F)cc1)[C@@H](C)CC (stereo partly drawn) [Example 135, 4-fluoro-N-{(1S)-2-hydroxy-1-[(1S)-1-methylpropyl]butyl}benzenesulfonamide] |  |  | 1 (1=non-toxic) | 1.91 | 
C=C(C)C(O)(C(=C)C)[C@@H](NS(=O)(=O)c1ccccc1F)[C@@H](C)CC [Example 268, 2-fluoro-N-{(1S)-2-hydroxy-2-isopropenyl-3-methyl-1-[(1S)-1-methylpropyl]-3-butenyl}benzenesulfonamide] |  |  | 1 (1=non-toxic) | 1.75 | 
CCCCCC[C@H](CC)[C@@H](CO)NS(=O)(=O)c1ccc(Cl)cc1 [Example 88, 4-Chloro-N-[(1 S,2S)-2-ethyl-1-(hydroxymethyl)octyl]benzenesulfonamide] |  |  |  |  | (%)APPI Toxicity [1, 5]: 1 (1=non-toxic); fold induction at 20 µg/mL [2, 6]: 6.4
O=S(=O)(N[C@H](CO)CC1CCCCC1)c1cccc(Cl)c1 [Example 106, 3-chloro-N-[(1S)-2-cyclohexyl-1-(hydroxymethyl)ethyl]benzenesulfonamide] | 1 (1=non-toxic) | 1.6 |  |  | 
CC(C)C[C@@H](C(C)C)[C@@H](CO)NS(=O)(=O)c1ccc(Br)cc1 [Example 87, 4-bromo-N-[(1S,2S)-1-(hydroxymethyl)-2-isopropyl-4-methylpentyl]benzenesulfonamide] |  |  |  |  | (%)APPI Toxicity [1, 5]: 1 (1=non-toxic); fold induction at 20 µg/mL [2, 6]: 8.8
CC[C@H](C)[C@H](NS(=O)(=O)c1cccc(Cl)c1)C(O)CC(C)C (stereo partly drawn) [Example 192, 3-chloro-N-{(1S)-2-hydroxy-4-methyl-1-[(1S)-1-methylpropyl]pentyl}benzenesulfonamide] |  |  | 1 (1=non-toxic) | 2.21 | 
CCCC(CO)NS(=O)(=O)c1cccc(Cl)c1 (stereo not drawn) [Example 105, 3-chloro-N-[1-(hydroxymethyl)butyl]benzenesulfonamide] |  |  | 1 (1=non-toxic) | 1.54 | 
C=CCCC(O)[C@@H](NS(=O)(=O)c1ccc(Br)cc1)[C@@H](C)CC (stereo partly drawn) [Example 161, 4-bromo-N-{(1S)-2-hydroxy-1-[(1S)-1-methylpropyl]-5-hexenyl}benzenesulfonamide] |  |  | 1 (1=non-toxic) | 1.69 | 
CC[C@H](C)[C@@H](CO)NS(=O)(=O)c1ccc(F)cc1Cl [Example 5, 2-chloro-4-fluoro-N-[(1S,2S)-1-(hydroxymethyl)-2-methylbutyl]benzenesulfonamide] | 1 (1=non-toxic) | 2.5 |  |  | 
CC[C@H](C)[C@H](NS(=O)(=O)c1ccc(F)cc1)C(O)c1ccccc1C (stereo partly drawn) [Example 131, 4-fluoro-N{(1S,2S)-1-[hydroxy-(2-methylphenyl)methyl]-2-methylbutyl}benzenesulfonamide] |  |  | 1 (1=non-toxic) |  | APPI Fold Increase [2, 4]: 1.65 fold; APPI % of Example #98 ([2]; Conc 10 μg/ml): 64.57%
CC(C)[C@@H](CO)NS(=O)(=O)c1c(Cl)cc(Cl)cc1Cl [Example 28, 2,4,6-trichloro-N-[(1S)-1-(hydroxymethyl)-2-methylpropyl]benzenesulfonamide] | 1 (1=non-toxic) | 1.5 |  |  | 
C=CC(O)[C@@H](NS(=O)(=O)c1ccccc1F)[C@@H](C)CC (stereo partly drawn) [Example 206, 2-fluoro-N-{(1S)-2-hydroxy-1-[(1S)1-methylpropyl]-3-butenyl}benzenesulfonamide] |  |  | 1 (1=non-toxic) | 1.9 | 
O=S(=O)(NC1(CO)CCCC1)c1ccc(Br)cc1 [Example 94, 4-bromo-N-[1-(hydroxymethyl)cyclopentyl]benzenesulfonamide] | 1 (1=non-toxic) | 2.5 |  |  | 
C[C@H](NS(=O)(=O)c1ccccc1F)[C@@H](O)c1ccccc1 [Example 111, 2-fluoro-N-[(1 S,2 S)-2-hydroxy-1-methyl-2-phenylethyl] benzenesulfonamide] | 1 (1=non-toxic) |  |  |  | APPI Fold Increase [2, 3]: 1.7 fold; APPI % of Example #98 ([2]; Conc 20 μg/ml): 47.8%
CC[C@H](C)[C@H](NS(=O)(=O)c1ccc(F)cc1)C(O)c1cccc2ccccc12 (stereo partly drawn) [Example 144, 4-fluoro-N-{(1S,2S)-1-[hydroxy(1-naphthyl)methyl]-2-methylbutyl}benzenesulfonamide] |  |  | 1 (1=non-toxic) | 1.69 | 
CC[C@H](C)[C@@H](CO)NS(=O)(=O)c1ccc(F)cc1 [Example 10, 4-fluoro-N-[(1S,2S)-1-(hydroxymethyl)-2-methylbutyl]benzenesulfonamide] | 1 (1=non-toxic) | 3.3 |  |  | 
COc1ccc([C@@H](C)[C@@H](CO)NS(=O)(=O)c2ccc(Br)cc2)cc1 [Example 71, 4-bromo-N-[(1S,2R)-1-(hydroxymethyl)-2-(4-methoxyphenyl)propyl]benzenesulfonamide] |  |  |  |  | (%)APPI Toxicity [1, 5]: 1 (1=non-toxic); fold induction at 20 µg/mL [2, 6]: 1.9
C[C@@H](c1ccccc1)[C@@H](CO)NS(=O)(=O)c1ccc(Cl)cc1 [Example 63, 4-chloro-N-[(1S,2S)-1-(hydroxymethyl)-2-phenylpropyl]benzenesulfonamide] |  |  |  |  | (%)APPI Toxicity [1, 5]: 1 (1=non-toxic); fold induction at 20 µg/mL [2, 6]: 2
C/C=C(\C)C(O)(/C(C)=C/C)[C@@H](NS(=O)(=O)c1ccc(Cl)cc1)[C@@H](C)CC (stereo partly drawn) [Example 232, 4-chloro-N-{(1S,3E)-2-hydroxy-3-methyl-2-[(1E)-1-methyl-1-propenyl]-1-[(1S)-1-methylpropyl]-3-pentenyl}benzenesulfonamide] | 1 (1=non-toxic) | 4.2 | 1 (1=non-toxic) | 1.94 | 
CCCCCC[C@@H](C)[C@@H](CO)NS(=O)(=O)c1ccc(Cl)cc1 [Example 50, 4-chloro-N-[(1S,2R)-1-(hydroxymethyl)-2-methyloctyl]benzenesulfonamide] | 1 (1=non-toxic) | 2.5 |  |  | 
2-fluoro-N-[(1S)-1-(hydroxy 1-methylethyl]benzenesulfonamide [Example 117] | 1 (1=non-toxic) |  |  |  | APPI Fold Increase [2, 3]: 1.5 fold; APPI % of Example #98 ([2]; Conc 20 μg/ml): 31%
CC[C@H](C)[C@H](NS(=O)(=O)c1ccc(Cl)cc1)C(O)c1ccc(OC)cc1 (stereo partly drawn) [Example 178, 4-chloro-N-{(1S,2S)-1-[hydroxy(4-methoxyphenyl)methyl]-2-methylbutyl}benzenesulfonamide] |  |  | 1 (1=non-toxic) | 1.68 | 
CC[C@H](C)[C@@H](CO)N(Cc1ccc(OC)c(OC)c1)S(=O)(=O)c1ccc(Cl)cc1 [Example 45, 4-chloro-N-(3,4-dimethoxybenzyl)-N-[(1S,2S)-1-(hydroxymethyl)-2-methylbutyl]benzenesulfonamide] | 1 (1=non-toxic) | 1.5 |  |  | 
CC[C@H](C)[C@H](NS(=O)(=O)c1ccccc1F)C(O)(c1ccc(OC)cc1)c1ccc(OC)cc1 [Example 269, 2-fluoro-N-((1S,2S)-1-{hydroxy[bis(4-methoxyphenyl)]methyl}-2-methylbutyl)benzenesulfonamide] |  |  | 1 (1=non-toxic) | 1.58 | 
